Measurements taken from patent US20260137091A1, “NEW PEPTIDES AND THE USE OF SAME FOR MODULATING ACCUMULATION OF A PROTEIN” (priority 2022, published 2026).

System: NSP1-GUS fusion protein
Assay: Quantification of GUS activity in roots expressing an NSP1-GUS fusion after cPEP treatment
Type: in vivo
Conditions: Medicago truncatula transformed roots; treatment for 5 days with 0.1 μM cPEP by spraying; versus control (water)
Description: The y-axis represents the quantification of GUS activity in the roots of an NSP1-GUS fusion in response to treatment for 5 days with 0.1 μM of a cPEP targeting the 5′UTR region of the NSP1 gene. Error bars represent SEM, asterisks indicate a significant difference between test condition and control according to Student's t-test (n=30, p<0.05).
NSP1::GUS fusion was achieved, using a modified pCambia vector (Lauressergues et al., Nature, 520: 90-3, 2015), by cloning 3 kb of NSP1 promoter, the NSP1 gene coding sequence, the GUS protein coding sequence and 3 kb of the NSP1 gene downstream sequence (FIG. 2).
Root transformation of M. truncatula was carried out using the method described in Boisson-Dernier et al, Mol Plant Microbe Interact, 14(6): 695-700, 2001.
Plants were treated by spraying with a solution containing a low concentration of cPEPs (from 0.1 μM to 10 μM) or with water.
The accumulation of the protein targeted by cPEP was then measured in each plant by quantifying GUS activity or by quantifying protein activity by Western blot (Blizquez M., Quantitative GUS activity assay in intact plant tissue, Cold Spring Harbor Laboratory Press, Cold Spring Harbor, NY, USA, 2002).

Substance | accumulation of the NSP1 protein (quantification of GUS activity in the roots of an NSP1-GUS fusion)
SEQ ID NO: 162: cPEP (11 amino acids) translated from a fragment of the 5′UTR of NSP1 pre-mRNA, +3 reading frame (KPFKFSSSISH; NSP1-5UTR-11) | increase in the accumulation of the NSP1 protein
SEQ ID NO: 164: cPEP (10 amino acids) translated from a 30 nucleotide fragment of the 3′UTR of NSP1 pre-mRNA, +2 reading frame (CHHDEVISPQ; NSP1-3UTR) | increase in the accumulation of the NSP1 protein
